Literature values in US20070281011A1, “Nanoparticulate posaconazole formulations” (Elan Pharma International Ltd., priority 2006, published 2007).

Tests used:
[1] = meal containing fat calories; regardless of formulation (tablet versus suspension)
[2] = test system: cytochrome P450 14a-demethylase (P45014DM); conditions: particularly in Aspergillus

CC[C@@H]([C@H](C)O)n1ncn(-c2ccc(N3CCN(c4ccc(OC[C@@H]5CO[C@@](Cn6cncn6)(c6ccc(F)cc6F)C5)cc4)CC3)cc2)c1=O [Posaconazole]
aqueous solubility: < 1 µg/mL
increase of relative oral bioavailability [1]: approximately 400%
inhibition of sterol C14 demethylation compared to itraconazole [2]: significantly more potent inhibitor
